Measured values as given in US20250327028A1, “ENGINEERED PLATELETS AS TARGETED PROTEIN DEGRADERS” (Wisconsin Alumni Research Foundation, priority 2024, published 2025).

Key:
[1] = molecular target: T1, PD-L1 (Mus musculus, UniProt Q9EP73); assay: Immunoblot analysis of PD-L1 expression in LRP-1-deficient PEA-10 cells; assay type: cell-based, murine; conditions: PEA-10 (LRP-1-deficient), various concentrations, 8 h, CM
T1 construct: endogenous in cells; host or cells: 4T1
From the text: (§1) Immunoblot analysis: Immunoblot analysis was used to evaluate the expression of BRD4, HSP90, HSP90a, and PD-L1 in 4T1, WT MDA-MB-231, HSP90α-KO MDA-MB-231 or PEA-10 cells after various treatments and also served as the detection method for IP or co-IP experiments. The procedures for preparing IP or co-IP samples were indicated in the relevant experimental parts.
(§2) Sample preparation for various cancer cells after free HAC treatment: Various cells, including 4T1, WT MDA-MB-231, HSP90α-KO MDA-MB-231, or PEA-10 cells, were seeded in 6-well culture plates with a density of 5×10^4 cells in each well and cultured for 24 h. Then, if HAI pretreatment was performed, the cells were incubated in the HAI-containing blank medium at different concentrations for 2 h and washed with PBS twice before the following treatments. […]
(§3) General procedures for immunoblot analysis: After a 30-min lysis, the lysates were centrifuged at 10,000 g for 10 minutes at 4° C., and the corresponding supernatants were collected, followed by quantification of the total proteins in the supernatant through the BCA assay. […] Finally, the bands were treated with electrochemiluminescence (ECL) western blot substrate, detected by the iBright™ imaging system and quantified with ImageJ software. […]

[2] = molecular target: T2, PD-L1 (Homo sapiens, UniProt Q9NZQ7); assay: PD-L1 degradation in HSP90α-KO MDA-MB-231 cells; assay type: cell-based
T2 construct: endogenous in cells; host or cells: HSP90α-KO MDA-MB-231
T2 sequence (Q9NZQ7 19-290): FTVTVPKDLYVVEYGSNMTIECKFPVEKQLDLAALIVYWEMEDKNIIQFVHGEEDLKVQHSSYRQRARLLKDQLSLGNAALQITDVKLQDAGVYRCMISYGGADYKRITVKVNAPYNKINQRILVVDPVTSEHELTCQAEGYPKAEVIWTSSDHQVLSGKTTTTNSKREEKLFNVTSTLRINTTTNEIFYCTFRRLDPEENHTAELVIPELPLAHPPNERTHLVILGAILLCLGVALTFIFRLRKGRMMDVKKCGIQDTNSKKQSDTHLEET
From the text: as §1, §2, §3

[3] = system: 4T1-Luc tumors; assay: Treatment efficacy in post-surgery BALB/c mice with orthotopic 4T1-Luc breast cancer; assay type: in vivo; conditions: 2×10^8 platelets i.v. or free HAC 5 mg/kg i.p., every third day for 4 times
From the text: Evaluation of treatment efficacy and biosafety in post-surgical 4T1 tumor-bearing mice: Post-surgery BALB/c mice with orthotopic 4T1-Luc-breast cancer were used to evaluate the tumor recurrence, metastasis, and biosafety profiles after iDePLT or eDePLT treatments. The treatment efficacy of iDePLT was also studied in the post-surgery NSG mice with orthotopic patient-derived xenografts (PDX) breast cancer.
Establishment of post-surgery models with BALB/c mice: 1×10^6 4T1-Luc cells were suspended in a PBS containing 50% Matrigel® (Corning®/354234). Female 8-week-old BALB/c mice were anesthetized and injected with 50 μL of the cell suspensions into the fourth mammary gland fat pads. After the tumor volumes reached about 100-200 mm^3, the tumor-bearing mice were anesthetized and placed under the microscope, followed by surgical resection to totally remove the visible tumor tissues. Following wound closure, the post-surgery mice were randomly assigned to different treatment groups.
Evaluation of treatment efficacy and biosafety in post-surgery BALB/c mice: As for the treatments with platelets, the platelets were freshly isolated from the healthy female BALB/c mice and suspended in PBS for intravenous (i.v.) injection after the necessary engineering. The free iHAC and eHAC were intraperitoneally (i.p.) injected after dispersing in the formulation of 10% DMSO, 40% polyethylene glycol 300 (PEG300), 5% Tween TM-80, and 45% saline. From the same day after surgery, the mice were anesthetized and i.p. injected with D-luciferin potassium salt (150 mg/kg) in 100 μL in PBS. The bioluminescence of post-surgery mice in each group was detected by Perkin Elmer IVIS every five days from the day of surgery, and intensity was analyzed by Living Image Software v.4.3.1. […] During the treatment course, the body weight of each post-surgery mouse was monitored daily. […]

[4] = molecular target: T2, PD-L1; assay: PD-L1 distribution in WT MDA-MB-231 cells (fluorescence observation); assay type: cell-based; conditions: 2 h, compared to PU-H71 plus BMS-1166
Procedure: PD-L1 distribution in WT MDA-MB-231 cells: 5×10^4 WT MDA-MB-231 cells were seeded in a confocal dish and cultured for 24 h at 37° C. Then, the cells were treated with eHAC or the combination of PU-H71 plus BMS-1166 at 0.5 μM for 2 h. Subsequently, the cells were washed with PBS twice and fixed with 4% PFA at room temperature for 20 min. The following procedures were the same as the above colocalization observation except for replacing the anti-LAMP1 antibody with rabbit anti-PD-L1 antibody (Invitrogen/PA5-20343).

[5] = system: 4T1-Luc tumors; assay: Flow cytometry and ELISA of infiltrated effector T cells and cytokines within tumor tissues of post-surgery mice; assay type: in vivo, BALB/c mice; conditions: flow cytometry, two weeks after last treatment
Procedure: Flow cytometry analysis and ELISA assay were adopted to study the infiltrated effector T cells and immune-associated cytokines within the tumor tissues. The same post-surgery mouse models were established and randomly divided into 4 groups (n=5), which were i.v. injected with PBS, nPLT (2×10^8 platelets), eDePLT (2×10^8 platelets), and free eHAC (5 mg/kg) every three days for four times starting from day 1 post-surgery. After 2 weeks of the last treatment, the tumor tissues were isolated, weighed, and cut into small pieces, which were then soaked in 2 mL blank medium containing collagenase (MilliporeSigma/C5138) and incubated at 37° C. for 1 h. The cell suspensions were centrifugated at 1200 rpm for 3 min, and 200 μL of the corresponding supernatants were collected and subjected to ELISA analysis for IFN-γ and TNF-α. The single cell suspensions were collected through filtration of the suspension over 40 µm nylon cell strainer (Falcon®/352340). For the staining, 1×10^6 cells for each sample were collected and incubated with 100 μL of PBS containing PE anti-mouse CD3 antibody and APC anti-mouse CD8a antibody in the dark for 30 min at 4° C. Then, the samples were centrifuged at 2,000 rpm for 5 min at room temperature. The pellets were resuspended in PBS and subjected to the flow cytometry analysis.

[6] = molecular target: T1, PD-L1; assay: Immunoblot analysis of PD-L1 degradation in 4T1 cells after free HAC treatment; assay type: cell-based, murine
From the text: as §1
Sample preparation for various cancer cells after free HAC treatment: Various cells, including 4T1, WT MDA-MB-231, HSP90α-KO MDA-MB-231, or PEA-10 cells, were seeded in 6-well culture plates with a density of 5×10^4 cells in each well and cultured for 24 h. Then, if HAI pretreatment was performed, the cells were incubated in the HAI-containing blank medium at different concentrations for 2 h and washed with PBS twice before the following treatments. The medium in the corresponding wells was replaced with 1 mL of blank medium containing the DMSO vehicle, HACs, or the combinations of various free ligands at the predetermined concentrations. After incubation for the indicated time points, cells were washed with PBS and lysed on ice with the relevant lysis buffer containing PMSF (1 mM) and the phosphatase inhibitor cocktail for 30 min. As for the conditioned medium (CM), the culturing complete medium of the corresponding cancer cells in each well was collected after 24-h incubation and subjected to centrifugation at 2000 rpm for 5 min to obtain the supernatant. The filtrate of the supernatants was collected following filtration over a 0.45 μm filter, serving as the CM. Regarding the cell samples for BRD4 detection, the lysis buffer containing HEPES-KOH (pH=7.5, 10 mM), NaCl (500 mM), EDTA (5 mM), NP-40 (1%), and SDS (0.1%) was used with the indicated PMSF and phosphatase inhibitor cocktail. As for PD-L1 detection, RIPA buffer (Thermo Fisher Scientific/J63306.AP) was used with the indicated PMSF and phosphatase inhibitor cocktail.
as §3, with “assay. Afterward, the proteins in the supernatant were mixed with the loading buffer and heated at 95° C. for 15 min. Equal amounts of proteins from different samples ([…]) were loaded into the Bis-Tris gel formulated with Bis-Tis buffer, 30% acrylamide/Bis, 10% ammonium persulfate (APS) solution, and TEMED.” for “assay.”

T1 sequence (Q9EP73 19-290): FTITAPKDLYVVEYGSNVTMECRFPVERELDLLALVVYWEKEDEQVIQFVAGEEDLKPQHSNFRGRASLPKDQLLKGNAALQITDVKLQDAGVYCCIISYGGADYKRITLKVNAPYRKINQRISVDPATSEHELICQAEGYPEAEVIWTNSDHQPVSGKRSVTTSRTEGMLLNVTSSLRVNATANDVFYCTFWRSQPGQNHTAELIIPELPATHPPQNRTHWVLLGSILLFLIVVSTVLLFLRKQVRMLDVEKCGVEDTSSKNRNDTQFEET

Cc1c(COc2cc(OCc3cccc(C#N)c3)c(CN3C[C@H](O)C[C@@H]3C(=O)NCCOCc3cn(CCCC(=O)N(CC#N)S(=O)(=O)c4ccc(C(=O)NCCCn5c(Sc6cc7c(cc6I)OCO7)nc6c(N)ncnc65)cc4)nn3)cc2Cl)cccc1-c1ccc2c(c1)OCCO2 [eHAC, (2R,4R)—N-(2-((1-(4-((4-((3-(6-amino-8-((6-iodobenzo[d][1,3]dioxol-5-yl)thio)-9H-purin-9-yl)propyl)carbamoyl)-N-(cyanomethyl)phenyl)sulfonamido)-4-oxobutyl)-1H-1,2,3-triazol-4-yl)methoxy)ethyl)-1-(5-chloro-2-((3-cyanobenzyl)oxy)-4-((3-(2,3-dihydrobenzo[b][1,4]dioxin-6-yl)-2-methylbenzyl)oxy)benzyl)-4-hydroxypyrrolidine-2-carboxamide]
PD-L1 degradation [1]: failed to induce obvious PD-L1 degradation | PD-L1 degradation potency [2]: considerably compromised | tumor recurrence at the surgical site (bioluminescence) [3]: same severe relapse | PD-L1 distribution [4]: rapidly aggregated into punctate structures and moved towards cytosol | infiltration / ratio of CD3+CD8+ T cells in tumor tissues [5]: slightly elevated the ratio of CD3^+CD8^+ T cells | PD-L1 expression in presence of lysosome degradation inhibitor leupeptin ([6]; 4T1 cells, 5 μM, 8 h): rescue effect on PD-L1 expression | PD-L1 expression, eHAC dispersed in blank medium (BM) ([6]; 4T1 cells, blank medium): just slightly reduced the PD-L1 expression within 12 h | PD-L1 levels, eHAC suspended in conditioned medium (CM) ([6]; 4T1 cells, conditioned medium, same time points): could efficiently downregulate PD-L1 levels | time and concentration dependence of PD-L1 reduction ([6]; conditioned medium): in a time- and concentration-dependent manner
